US3987055A, “Azasteroids compounds and derivatives” (The Board of Regents for the Oklahoma Agricultural & …, priority 1974, dated 1976)
“And” between values parts separate entries of the source, which are not always exact repeats. Equal values may be shown once.

What was measured:
rat testis tubules [1] = assay: lysine-U-14C incorporation into protein by rat testis tubules in vitro; type: cell-based
Protocol: (§1) For these investigations the compounds were diluted in a minimal amount of ethanol and further diluted in saline (0.85%) so that the final concentration was 1 mg/ml. The compounds were placed in solution and gassed under N2 and stored at 5° C until used 2 days later for the in vitro incubation studies. Details of the in vitro incubation procedures may be found in Endocrinology 89:791-800 (1971).
The effects of the compounds on the incorporation of lysine -U-^14 C into trichloroacetic (TCA) precipitable protein of rat testes was investigated by incubating about 200 mg of teased testis tubules from mature rats in a 25 ml Erlenmeyer flask containing 3 ml of Krebs Ringer bicarbonate buffer (pH 7.4), L-lysine-U-^14 C (0.5 μCi; 0.1mM), glucose (10 mM) and 0.25 ml of the azasteroid to be tested. The flasks were incubated for 1 hour at 33° C under 95% O2 : 5% CO2 and the TCA precipitable protein was isolated and an aliquot used to measure radioactivity.
CPM = counts per minute. All compounds were tested in a concentration of […]

L-M cells [2] = assay: uptake and incorporation of 3H-thymidine, 3H-uridine and 14C-leucine by L-M cells; type: cell-based, mouse; conditions: 15 μg/ml
Protocol: ^3 H-Thymidine (10 μCi), or ^3 H-uridine (10 μCi), or ^14 C-leucine (5 .rho.Ci), was added to suspension cultures of L-M cells (8 × 10^5; /ml) in McCoy's 5a modified medium containing either 0 or 15 μg/ml of compound 5c. The cells were incubated at 37° C. One ml samples were removed at varying intervals and the rates of uptake and incorporation were determined from the liner portion of radioactivity versus time curves.

[3] = system: acid phosphatase, KB and L-M cells; assay: relative acid phosphatase staining (permeability of lysosomal membrane) of KB and L-M cells; type: cell-based, human (KB) and mouse (L-M); set-up: key to Relative acid phosphatase staining: light: cells showing only a few scattered granules; medium: more dense but distinct isolated granules were still detected; heavy: a more intense staining with fewer discrete granules; conditions: 20 μg/ml
Protocol: KB and L-M cells were grown on coverslips in medium 199 with 10% calf serum for the 24 hour growth prior to staining in the presence or absence of compound 5c (20 μg/ml) or compound 5d (20 μg/ml). The cells were washed in Hanks' salt solution, incubated at 37° C in Gomori's substrate solution for 1, 2, or 3 hours, washed, treated with a 1% solution of ammonium sulfide, washed, mounted and observed microscopically. Light staining was designated as cells showing only a few scattered granules; medium staining was more dense but distinct isolated granules were still detected; and heavy staining a more intense staining with fewer discrete granules. Heavy staining denotes increased phosphatase activity.
The acid phosphatase activity was measured in KB and L-M cells grown in medium in the presence or absence compound 5c or 5d (20 μg/ml) for 2 or 24 hours prior to staining (Table 2). Quantitative evaluation of the relative staining intensity of the lysosomes was compared in the treated and untreated cells. […] Thus, cells grown in the presence of compound 5c accumulate the phosphatase substrate within the lysosomes much more rapidly than the control or compound 5d treated cells indicating the compounds ability to alter membrane permeability and thus regulate the accumulation of essential metabolites. Control of this cellular capacity permits regulation of cell division so important in cancer chemotherapy. Since the permeation of the substrate is the rate-limiting step in the phosphatase determination, compound 5c produces a modification of the lysosomal membrane which increased the permeability of the lysosome to the substrate. The results also emphasize the difference in biological activity of compound 5c and 5d type molecules which chemically are similar except at C-3. Differences in the biological activity have been observed when the compounds were tested using various bacteria.

KB cells [4] = assay: growth inhibition of human tumor KB cell line; type: cell-based; conditions: 10 μg/ml or greater, read-out: concentration at which growth was inhibited
Protocol: For example, growth of both the human tumor KB* and the mouse L-M** cell lines was inhibited when the cells were grown in media containing 10 μg/ml or greater

rat testis tubules [5] = assay: glucose oxidation (glucose-U-14C) by rat testis tubules in vitro; type: cell-based
Protocol: as §1
The effects of these compounds on glucose oxidation by testis tubules was examined by incubating about 200 mg of teased testis tubules from mature rats in a 25 ml Erlenmeyer flask containing 3 ml of Krebs Ringer bicarbonate buffer (pH 7.4), D-glucose-U-^14 C (0.5 μCi; 10mM) and 0.25 ml of the azasteroid (1 mg/ml) to be tested. The flasks were incubated for 2 hours at 33° C under 95% O2 :5% CO2. The reaction was terminated by adding 0.25 ml of 5 N H2 SO4. Carbon dioxide was trapped in 0.25 ml of hydroxide of Hyamine. The radioactivity present in the Hyamine was determined by liquid scintillation spectrometry. This table includes a detailed summary of the results obtained and an average for each compound. […] Thus, the compounds have potential for antifertility activity in the control of wild rodent populations and possibly stray animals such as dogs and cats.
CPM = counts per minute. Glucose-U-^14 C activity was 0.5 millicurie.
All compounds were tested in a concentration of 250 mg per flask.

[6] = system: acid phosphatase, KB and L-M cells; assay: relative acid phosphatase staining (permeability of lysosomal membrane) of KB and L-M cells; type: cell-based, human (KB) and mouse (L-M); conditions: control experiment with Triton X-100
KB cells [7] = assay: relative plating efficiency of KB cells (colony formation, 7 days); type: cell-based, human
Protocol: The KB cells were plated in plastic tissue culture dishes and grown in a 5% CO2 gas phase incubator for 7 days. The medium was removed, the plates washed with Hanks' salt solution and the cells stained with a 0.5% aqueous crystal violet solution, rinsed and dried. The colonies were counted and the relative plating efficiency calculated using the number of control colonies as 100 percent.

L-M cells [8] = assay: growth inhibition of mouse L-M cell line; type: cell-based
Protocol: Cells (1 × 10^5 /ml) were added to the "incubated" compound-containing medium.

KB cells [9] = assay: colony and cell morphology of KB cells; type: cell-based, human; conditions: 10 and 20 μg/ml
Protocol: Differences in cell morphology were also observed. […] Since the difference in staining density could be the result of modification of intracellular structures, such as lysosomes, experiments were performed to determine the effect of the compounds on the permeability of lysosomal membrane.

[10] = individual flask, 250 mg per flask (so in the source), 1 hour, 33° C
[11] = individual flask, 250 mg per flask (so in the source), 2 hours, 33° C

## CC12CCN=C1c1ccc3cc(O)ccc3c1CC2 (stereo not shown) [Compound 5c, 1,10,11,11a-tetrahydro-11a-methyl-2H-naphth[1,2-g]indol-7-ol]
Rat testis tubules [1]; average of two flasks
  AVERAGE OF TWO FLASK lysine incorporation: 1,944 CPM/100 mg tissue
Rat testis tubules [1]; [10]
  lysine incorporation into protein per 100 mg: 1,616 CPM/100 mg and 2,273 CPM/100 mg
  lysine incorporation into protein per flask: 3,325 CPM/FLASK and 4,575 CPM/FLASK
L-M cells [2]
  uptake of radioactive thymidine, uridine, and leucine: inhibited
L-M cells [2]; 3H-thymidine
  Cell Pool: 700 Cpm/8×10^5 cells/hr
  Rate of incorporation: 1,300 Cpm/8×10^5 cells/hr
  Rate of uptake: 2,000 Cpm/8×10^5 cells/hr
L-M cells [2]; 3H-uridine
  Cell Pool: 1,600 Cpm/8×10^5 cells/hr
  Rate of incorporation: 1,400 Cpm/8×10^5 cells/hr
  Rate of uptake: 3,000 Cpm/8×10^5 cells/hr
L-M cells [2]; 14C-leucine
  Cell Pool: 1,200 Cpm/8×10^5 cells/hr
  Rate of incorporation: 2,800 Cpm/8×10^5 cells/hr
  Rate of uptake: 4,000 Cpm/8×10^5 cells/hr
L-M cells [2]; Mus musculus, read-out: reduction of radioactivity present in the pool for each of the precursors
  inhibition at 15 µg/mL: ~66%
[3]; 24 h, 1 hour in substrate
  Relative acid phosphatase staining: light
[3]; 24 h, 2 hours in substrate
  Relative acid phosphatase staining: medium
[3]; 24 h, 3 hours in substrate
  Relative acid phosphatase staining: heavy
[3]; 24 h, all three substrate incubation times
  staining reaction versus control: more intense staining reaction
[3]; cells treated for 2 hours
  staining intensity versus untreated cells: indistinguishable from untreated cells
KB cells [4]
  minimal effective concentration: ≥ 10 µg/mL
Rat testis tubules [5]; average of flasks
  AVERAGE glucose oxidation: 8,181 CPM/100 mg TISSUE
Rat testis tubules [5]; in words
  depression of glucose oxidation in vitro: depressed glucose oxidation in vitro more than compounds 4 c and 11b
Rat testis tubules [5]; [11]
  GLUCOSE OXIDATION per 100 mg: 6,046 CPM/100 mg and 10,317 CPM/100 mg
  GLUCOSE OXIDATION per flask: 12,450 CPM/FLASK and 21,027 CPM/FLASK
Rat testis tubules [5]; versus saline, 120 min
  % DEVIATION FROM CONTROL, glucose oxidation: +20.8%
[6]
  induction of synthesis of acid phosphatase: does not induce synthesis of acid phosphatase in the cell
KB cells [7]; 1 μg/ml
  effect on the relative plating efficiency: little effect
KB cells [7]; Homo sapiens, KB, 168 h, 1 μg/ml
  activity at 1 µg/mL: 91%
KB cells [7]; Homo sapiens, KB, 168 h, 10 μg/ml
  activity at 10 µg/mL: 38%
KB cells [7]; Homo sapiens, KB, 168 h, 10 μg/ml, 7 days, read-out: cells killed
  cytotoxicity at 10 µg/mL: 62%
KB cells [7]; Homo sapiens, KB, 168 h, 20 μg/ml
  activity at 20 µg/mL: 17%
KB cells [7]; Homo sapiens, KB, 168 h, 20 μg/ml, 7 days, read-out: cells killed
  cytotoxicity at 20 µg/mL: 83%
L-M cells [8]; 1 μg/ml
  growth rate versus control: same growth rate as the control
L-M cells [8]; 20 μg/ml
  growth inhibition at 20 μg/ml: marked inhibition
L-M cells [8]; 20 μg/ml, after three days
  increase in cell numbers: no significant increase in cell numbers
L-M cells [8]; Mus musculus, 96 h, 10 μg/ml, fourth day, read-out: growth as % of the control
  activity at 10 µg/mL: 50%
L-M cells [8]; Mus musculus, L-M cells, 10 μg/ml or greater, read-out: concentration at which growth was inhibited
  minimal effective concentration: ≥ 10 µg/mL
KB cells [9]
  cell division: did not divide, or if limited division occurred, only a few small colonies were formed containing a small number of cells
  density of treated cells: less uniform density with areas of heavy and light staining
  position of nuclei in treated cells: located at the periphery of the cell which contained little cytoplasm
